Experimental data as given in patent publication US12491159B2, “Controlled release formulations for the induction and proliferation of blood cells” (UNIVERSITY OF PITTSBURGH—OF THE COMMONWEALTH SYSTEM OF …, priority 2012, dated 2025).
No end group written: not given here.

How the values were obtained:
naïve CD4+CD25− cells = experiment: Treg induction from naïve T cells by soluble factors (FoxP3 staining, flow cytometry); type: cell-based, mouse
[1] = cited from earlier work
[2] = test system: dendritic cells / FoxP3+ CD4+ T-cells; experiment: VIP bioactivity assay: DC culture and CD4+ T cell chemotaxis; type: cell-based, mouse; conditions: LPS
Procedure: Three separate DC cultures with 24 individual wells were completed in accordance with Example XIII Both GM-CSF and IL-4 were used to culture the cells in the first two DC cell cultures, but for the third DC culture, the IL-4 was omitted to reduce its possible interference in steering immune cells toward a tolerogenic phenotype. Chemotaxis studies of CD4+ T-cells were performed and the percent of FoxP3+ T-cells which flowed through the transwells for each group was evaluated using flow. The data is presented as a normalized percent of FoxP3+ cells which were recruited by the DCs for the first DC when both IL-4 and GM-CSF were used to culture the DC precursors and when GM-CSF was used alone in the last DC culture. […] See, FIG. 15.
When the DC culture was repeated with the absence of IL-4 and addition of 5×GM-CSF, flow cytometry indicated slightly different trends. […]
In the first two experiments, both GM-CSF and IL-4 were added to DC media (modified RPMI 1640) of bone marrow cell cultures during media changes on Days 0, 3 and 6. […] Five different groups of four wells each were analyzed and received treatment. […]
CD4+ T-cells were isolated from the spleen and lymph nodes of a mouse using Dynal® beads following a standard protocol. […] T Cells that flowed through were analyzed for FoxP3+ expression using flow cytometry.

**Q.** For “TGF-β: recombinant human TGF-β1 (CHO cell-derived, PeproTech), transforming growth factor β1”, which “percent of CD4+ that express FoxP3” value (naïve CD4+CD25− cells; RA 0 ng/ml, TGF-β 0.5 ng/ml (Table 2)) is on record?
**A.** 8.08%

**Q.** What about the “percent of CD4+ that express FoxP3” value (naïve CD4+CD25− cells; RA 0 ng/ml, TGF-β 5 ng/ml (Table 2)) of the same molecule?
**A.** 28.52%

**Q.** What about the “percent of CD4+ that express FoxP3” value (naïve CD4+CD25− cells; RA 0 ng/ml, TGF-β 20 ng/ml (Table 2)) of the same molecule?
**A.** 27.42%

**Q.** What about the “percent of CD4+ that express FoxP3” value (naïve CD4+CD25− cells; Rapa 0 ng/ml, TGF-β 0.1 ng/ml (Table 1)) of the same molecule?
**A.** 0.61%

**Q.** What about the “percent of CD4+ that express FoxP3” value (naïve CD4+CD25− cells; Rapa 0 ng/ml, TGF-β 1 ng/ml (Table 1)) of the same molecule?
**A.** 2.82%

**Q.** What about the “percent of CD4+ that express FoxP3” value (naïve CD4+CD25− cells; Rapa 0 ng/ml, TGF-β 5 ng/ml (Table 1)) of the same molecule?
**A.** 18.16%

**Q.** And the “percent of CD4+ that express FoxP3” value (naïve CD4+CD25− cells; Rapa 0 ng/ml, TGF-β 20 ng/ml (Table 1))?
**A.** 53.26%

**Q.** For `CC1=C(/C=C/C(C)=C/C=C/C(C)=C/C(=O)O)C(C)(C)CCC1` [RA, all-trans retinoic acid], which “toxicity upon local administration” value [1] is on record?
**A.** induce hypervitaminosis-A

**Q.** What about the “percent of CD4+ that express FoxP3” value (naïve CD4+CD25− cells; RA 0.1 ng/ml, TGF-β 0 ng/ml) of the same molecule?
**A.** 2.71%

**Q.** What about the “percent of CD4+ that express FoxP3” value (naïve CD4+CD25− cells; RA 0.1 ng/ml, TGF-β 0.5 ng/ml) of the same molecule?
**A.** 11.98%

**Q.** And the “percent of CD4+ that express FoxP3” value (naïve CD4+CD25− cells; RA 0.1 ng/ml, TGF-β 5 ng/ml)?
**A.** 35.18%

**Q.** What about the “percent of CD4+ that express FoxP3” value (naïve CD4+CD25− cells; RA 0.1 ng/ml, TGF-β 20 ng/ml) of the same molecule?
**A.** 28.33%

**Q.** What about the “percent of CD4+ that express FoxP3” value (naïve CD4+CD25− cells; RA 1 ng/ml, TGF-β 0 ng/ml) of the same molecule?
**A.** 2.64%

**Q.** What about the “percent of CD4+ that express FoxP3” value (naïve CD4+CD25− cells; RA 1 ng/ml, TGF-β 0.5 ng/ml) of the same molecule?
**A.** 10.5%

**Q.** And the “percent of CD4+ that express FoxP3” value (naïve CD4+CD25− cells; RA 1 ng/ml, TGF-β 5 ng/ml)?
**A.** 44.71%

**Q.** What about the “percent of CD4+ that express FoxP3” value (naïve CD4+CD25− cells; RA 1 ng/ml, TGF-β 20 ng/ml) of the same molecule?
**A.** 42.25%

**Q.** What about the “percent of CD4+ that express FoxP3” value (naïve CD4+CD25− cells; RA 10 ng/ml, TGF-β 0 ng/ml) of the same molecule?
**A.** 2.27%

**Q.** What about the “percent of CD4+ that express FoxP3” value (naïve CD4+CD25− cells; RA 10 ng/ml, TGF-β 0.5 ng/ml) of the same molecule?
**A.** 9.36%

**Q.** What about the “percent of CD4+ that express FoxP3” value (naïve CD4+CD25− cells; RA 10 ng/ml, TGF-β 5 ng/ml) of the same molecule?
**A.** 42.22%

**Q.** What about the “percent of CD4+ that express FoxP3” value (naïve CD4+CD25− cells; RA 10 ng/ml, TGF-β 20 ng/ml) of the same molecule?
**A.** 45.97%

**Q.** What about the “percent of CD4+ that express FoxP3” value (naïve CD4+CD25− cells; RA 100 ng/ml, TGF-β 0 ng/ml) of the same molecule?
**A.** 2.23%

**Q.** And the “percent of CD4+ that express FoxP3” value (naïve CD4+CD25− cells; RA 100 ng/ml, TGF-β 0.5 ng/ml)?
**A.** 10.01%

**Q.** What about the “percent of CD4+ that express FoxP3” value (naïve CD4+CD25− cells; RA 100 ng/ml, TGF-β 5 ng/ml) of the same molecule?
**A.** 50.71%

**Q.** And the “percent of CD4+ that express FoxP3” value (naïve CD4+CD25− cells; RA 100 ng/ml, TGF-β 20 ng/ml)?
**A.** 43.43%

**Q.** Which results are given for “VIP: Vasoactive intestinal peptide, a 28-amino acid neuropeptide (HSDAVFTDNYTRLRKQMAVKKYLNSILN; ends and bridges not checked; UniProt P01282 125-152, looked up)”?
**A.** percentage of FoxP3+ cells recruited by treated DCs ([2]; DC precursors cultured with IL-4 and GM-CSF, versus LPS only or blank particle releasates): recruited a higher percentage of FoxP3+ cells; percentage of FoxP3+ cells recruited by treated DCs ([2]; no IL-4, 5×GM-CSF, relative to LPS alone): recruited the same percentage of FoxP3+ cells

**Q.** For `CO[C@H]1C[C@@H]2CC[C@@H](C)[C@@](O)(O2)C(=O)C(=O)N2CCCC[C@H]2C(=O)O[C@H]([C@H](C)C[C@@H]2CC[C@@H](O)[C@H](OC)C2)CC(=O)[C@H](C)/C=C(\C)[C@@H](O)[C@@H](OC)C(=O)[C@H](C)C[C@H](C)/C=C/C=C/C=C/1C` [Rapa, rapamycin], which “percent of CD4+ that express FoxP3” value (naïve CD4+CD25− cells; Rapa 1 ng/ml, TGF-β 0 ng/ml) is on record?
**A.** 1.91%

**Q.** And the “percent of CD4+ that express FoxP3” value (naïve CD4+CD25− cells; Rapa 1 ng/ml, TGF-β 0.1 ng/ml)?
**A.** 3.04%

**Q.** And the “percent of CD4+ that express FoxP3” value (naïve CD4+CD25− cells; Rapa 1 ng/ml, TGF-β 1 ng/ml)?
**A.** 8.89%

**Q.** What about the “percent of CD4+ that express FoxP3” value (naïve CD4+CD25− cells; Rapa 1 ng/ml, TGF-β 5 ng/ml) of the same molecule?
**A.** 34.41%

**Q.** And the “percent of CD4+ that express FoxP3” value (naïve CD4+CD25− cells; Rapa 1 ng/ml, TGF-β 20 ng/ml)?
**A.** 76.22%

**Q.** And the “percent of CD4+ that express FoxP3” value (naïve CD4+CD25− cells; Rapa 10 ng/ml, TGF-β 0 ng/ml)?
**A.** 3.45%

**Q.** What about the “percent of CD4+ that express FoxP3” value (naïve CD4+CD25− cells; Rapa 10 ng/ml, TGF-β 0.1 ng/ml) of the same molecule?
**A.** 5.31%

**Q.** And the “percent of CD4+ that express FoxP3” value (naïve CD4+CD25− cells; Rapa 10 ng/ml, TGF-β 1 ng/ml)?
**A.** 14.48%

**Q.** And the “percent of CD4+ that express FoxP3” value (naïve CD4+CD25− cells; Rapa 10 ng/ml, TGF-β 5 ng/ml)?
**A.** 51.08%

**Q.** What about the “percent of CD4+ that express FoxP3” value (naïve CD4+CD25− cells; Rapa 10 ng/ml, TGF-β 20 ng/ml) of the same molecule?
**A.** 78.27%

**Q.** And the “percent of CD4+ that express FoxP3” value (naïve CD4+CD25− cells; Rapa 100 ng/ml, TGF-β 0 ng/ml)?
**A.** 4.13%

**Q.** What about the “percent of CD4+ that express FoxP3” value (naïve CD4+CD25− cells; Rapa 100 ng/ml, TGF-β 0.1 ng/ml) of the same molecule?
**A.** 7.8%

**Q.** What about the “percent of CD4+ that express FoxP3” value (naïve CD4+CD25− cells; Rapa 100 ng/ml, TGF-β 1 ng/ml) of the same molecule?
**A.** 22.05%

**Q.** What about the “percent of CD4+ that express FoxP3” value (naïve CD4+CD25− cells; Rapa 100 ng/ml, TGF-β 5 ng/ml) of the same molecule?
**A.** 54.19%

**Q.** And the “percent of CD4+ that express FoxP3” value (naïve CD4+CD25− cells; Rapa 100 ng/ml, TGF-β 20 ng/ml)?
**A.** 80.36%
